# Molecular target: T1, ESR1 (Mus musculus, UniProt P19785)
# T1 construct: tissue Charles River (mice); host or cells: uterus of ovariectomized female C57Bl/6 mice
# T1 sequence (P19785 1-599): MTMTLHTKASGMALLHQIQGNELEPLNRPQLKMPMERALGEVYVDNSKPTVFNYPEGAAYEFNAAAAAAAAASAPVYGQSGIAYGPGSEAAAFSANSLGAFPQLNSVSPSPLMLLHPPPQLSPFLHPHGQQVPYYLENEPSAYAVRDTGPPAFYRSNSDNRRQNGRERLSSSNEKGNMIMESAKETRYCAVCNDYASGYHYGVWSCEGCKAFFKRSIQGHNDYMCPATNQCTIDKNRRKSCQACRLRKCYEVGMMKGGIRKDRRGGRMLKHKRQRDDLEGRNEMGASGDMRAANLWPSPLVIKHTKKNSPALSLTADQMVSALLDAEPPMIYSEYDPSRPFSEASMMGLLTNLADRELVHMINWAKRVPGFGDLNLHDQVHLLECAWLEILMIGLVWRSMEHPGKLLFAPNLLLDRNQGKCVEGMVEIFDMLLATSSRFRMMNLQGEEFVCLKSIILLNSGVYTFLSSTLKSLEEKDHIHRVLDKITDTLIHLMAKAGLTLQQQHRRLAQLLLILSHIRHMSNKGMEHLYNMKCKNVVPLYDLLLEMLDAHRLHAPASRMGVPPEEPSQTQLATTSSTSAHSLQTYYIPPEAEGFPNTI
# Test: Uterine wet weight analysis in ovariectomized C57Bl/6 mice
# Assay type: in vivo
# Details: for uterine wet weight, single agent: without E2
# Description: Uterine wet weight analysis: Ovariectomized (10 days prior) female C57Bl/6 mice (Charles River) were treated daily (n=5) for 3 days with vehicle or estradiol benzoate (10 μg/kg sc) as well as vehicle, raloxifene (10 mg/kg sc), or RAD1901 (0.1-100 mg/kg sc). Ligands were dissolved in corn oil (Spectrum chemicals). On day 4, mice were euthanized and tissues were retained for analysis. Uterine wet weight was calculated as a ratio of uterus weight upon removal to body weight post-mortem.
# As a first step, the impact of RAD1901 on uterine wet weight in mice was evaluated. For this study, increasing doses of RAD1901 was administered daily to ovariectomized C57Bl/6 mice receiving vehicle alone or E2 (10 μg/kg; a physiological replacement dose). A group of mice receiving 10 mg/kg of raloxifene was included for comparative purposes and for reference. Ovariectomized C57Bl/6 mice (n=5) were treated daily for 3 days with (FIG. 8A) vehicle or (FIG. 8B) estradiol (10 μg/kg) together with vehicle, Ralox (10 mg/kg) or RAD1901 (RAD), ([…]). At euthanasia, body weight as well as uterine wet weight was measured prior to cryopreservation of the uterus. […] For FIG. 8C, ESR1 and β-actin expression in extracts made from pulverized uterine tissues were analyzed by immunoblot as in FIG. 5 (left). ESR1 expression relative to β-actin was quantitated as in FIG. 6 (right). Significant downregulation (*p<0.05) of ESR1 was determined by ANOVA followed by Bonferroni comparison.
compound,measurement,setting,value
"CCNCCc1ccc(CN(CC)c2cc(OC)ccc2[C@@H]2CCc3cc(O)ccc3C2)cc1 [RAD1901, (R)-6-{2-{ethyl[4-(2-ethylaminoethyl)benzyl]amino}-4-methoxyphenyl}-5,6,7,8-tetrahydronaphthalen-2-ol]",ESR1 expression in uterine tissue (immunoblot),0.3 mg/kg,no decrease in ESR1 expression
same,"uterine wet weight, single agent",0.3 mg/kg sc daily for 3 days,statistically significant increase
same,ESR1 expression in uterine tissue (immunoblot),RAD1901 0.3-100 mg/kg,dose dependent downregulation
same,"uterine wet weight, single agent","doses of 1 mg/kg and above, sc daily for 3 days",indistinguishable from vehicle treated animals
same,E2-dependent increases in uterine wet weight,"with estradiol 10 μg/kg, RAD1901 0.3-100 mg/kg",inhibit E2-dependent increases in uterine wet weight

# Reference: US10420734B2, “Method of treating cancer using selective estrogen receptor modulators” (Duke University, priority 2014, dated 2019)
